From patent US20210308196A1, “COMPOSITIONS AND METHODS TO PROMOTE HOST DEFENSE AND STIMULATE, EXPAND, AND/OR RESET T CELL REPERTOIRES” (EVOLVE BIOSYSTEMS, INC., priority 2018, published 2021)

Experiments:
Assay type in all cases: in vivo, human
[1] = Metabolomic analysis of infant feces (UPLC-MS/MS)
Procedure: Fecal samples from infants of Example 1 were evaluated as described below to characterize the fecal metabolome and what effects colonization by this organism may have on the infant's metabolism as a whole.
Sample Preparation: Fecal samples were maintained at −80° C. until processed. Samples were prepared using the automated MicroLab STAR® system from Hamilton Company. Several recovery standards were added prior to the first step in the extraction process for QC purposes. To remove protein, dissociate small molecules bound to protein or trapped in the precipitated protein matrix, and to recover chemically diverse metabolites, proteins were precipitated with methanol under vigorous shaking for 2 min (Glen Mills GenoGrinder 2000) followed by centrifugation. The resulting extract was divided into five fractions: two for analysis by two separate reverse phase (RP)/UPLC-MS/MS methods with positive ion mode electrospray ionization (ESI), one for analysis by RP/UPLC-MS/MS with negative ion mode ESI, one for analysis by HILIC/UPLC-MS/MS with negative ion mode ESI, and one sample was reserved for backup. Samples were placed briefly on a TurboVap® (Zymark) to remove the organic solvent. The sample extracts were stored overnight under nitrogen before preparation for analysis.
Preparation of study-tracking replicates. A small aliquot of each sample was pooled to create a study tracking sample, which was then injected periodically throughout the platform run. Variability detected in the study tracking sample among consistently detected biochemicals can be used to calculate an estimate of overall process and platform variability.
Ultrahigh Performance Liquid Chromatography-Tandem Mass Spectroscopy (UPLC-MS/MS): All methods utilized a Waters ACQUITY ultra-performance liquid chromatography (UPLC) and a Thermo Scientific Q-Exactive high resolution/accurate mass spectrometer interfaced with a heated electrospray ionization (HESI-II) source and Orbitrap mass analyzer operated at 35,000 mass resolution. The sample extract was dried then reconstituted in solvents compatible to each of the four methods. Each reconstitution solvent contained a series of standards at fixed concentrations to ensure injection and chromatographic consistency. One aliquot was analyzed using acidic positive ion conditions, chromatographically optimized for more hydrophilic compounds. In this method, the extract was gradient eluted from a C18 column (Waters UPLC BEH C18-2.1×100 mm, 1.7 μm) using water and methanol, containing 0.05% perfluoropentanoic acid (PFPA) and 0.1% formic acid (FA). Another aliquot was also analyzed using acidic positive ion conditions, however it was chromatographically optimized for more hydrophobic compounds. In this method, the extract was gradient eluted from the same afore mentioned C18 column using methanol, acetonitrile, water, 0.05% PFPA and 0.01% FA and was operated at an overall higher organic content. Another aliquot was analyzed using basic negative ion optimized conditions using a separate dedicated C18 column. The basic extracts were gradient eluted from the column using methanol and water, however with 6.5 mM Ammonium Bicarbonate at pH 8. The fourth aliquot was analyzed via negative ionization following elution from a HILIC column (Waters UPLC BEH Amide 2.1×150 mm, 1.7 μm) using a gradient consisting of water and acetonitrile with 10 mM Ammonium Formate, pH 10.8. The MS analysis alternated between MS and data-dependent MS' scans using dynamic exclusion. The scan range varied slighted between methods but covered 70-1000 m/z.
Data Extraction and Compound Identification: Raw data was extracted, peak-identified and QC processed using Proprietary hardware and software. […]

[2] = tested on: vaccine specific antibodies; experiment: Vaccine-specific antibodies in infant stool
From the text: Infants from Example 1 received vaccines per the standard schedule. Standard schedule is expected to look like this, as per the CDC (other nations have slightly different schedules; however, the repeated doses over the first year of life is common).
Stool samples were collected at 10 and 12 months for vaccine quantification to coincide with an appropriate post-vaccine time point, and to allow the expansion of vaccine-specific antibodies concentrations to plateau after primary, secondary or tertiary doses [Wright et al. (2014) Journal of Infectious Diseases:209 pg 1628-1634; Brown et al. (2012) J Immunol Methods: 386(1-2): 117-12].
Evaluation of stool for antigen specific responses in infants colonized with B. infantis EVC001. Biophysical antibody profiling assays are performed to assess the Fv and Fc characteristics of vaccine-elicited antibodies raised in infants with and without B. infantis colonization. Presence and phenotype of antibodies in test samples are assessed by staining of bead-bound antibodies with PE-conjugated detection reagents (Anti-IgG, Anti-IgA, and potentially Anti-IgE) and detection via flow cytometry. For the assay, 100 μL each of prepared stool samples from 34 subjects (2 timepoints, up to 62 samples total) that received either received EVC001 or are part of the control group.

fecal bacteria = experiment: Fecal microscopy (Gram-stained light microscopy, SEM)
Procedure: Fecal Microscopy. All samples were fixed by adding equal amount of 5% glutaraldehyde in 0.2 M cacodylate buffer (final concentration 2.5% glutaraldehyde in 0.1 M cacodylate buffer) for 1-2 h before being processed for Gram-stained light microscopy and scanning electron microscopy (SEM). For light microscopy, conventional Gram-stained samples on slides were imaged under an EVOS Auto-FL system using a 60× lens and 2.7× optical zoom, under the same setting of the color camera. Five random fields of images were collected from each sample slide. For SEM, since the samples were previously frozen before fixation, the osmium post-fixation, and critical-point dry procedures were not performed. The fixed samples were dehydrated through an ethanol series and placed on membrane filters. The samples were mounted onto the SEM stubs, aired overnight, and then vacuum-oven dried at 50° C. for >2 h before sputter-coating with a thin layer of chromium using Denton Desk V sputter. Images were collected under various magnifications to capture bacterial morphology using a Hitachi […] field-emission SEM. Microscopy confirmed the high levels of Bifidobacterium in samples from the treatment group.

TNF = experiment: Fecal TNF expression; conditions: treatment group
[3] = day 28, fold-change active:control
[4] = intervention/control, outlier removed

Bifidobacterium longum subsp. infantis EVC001 [B. infantis EVC001]
creatinine Active/Control [1, 3]: 1.4
gamma-glutamyl-alpha-lysine Active/Control [1, 3]: 3.3
gamma-glutamyl-epsilon-lysine Active/Control [1, 3]: 2.4
gamma-glutamylalanine Active/Control [1, 3]: 5.9
gamma-glutamylcysteine Active/Control [1, 3]: 44.3
gamma-glutamylglutamate Active/Control [1, 3]: 3.1
gamma-glutamylglutamine Active/Control [1, 3]: 1.6
gamma-glutamylhistidine Active/Control [1, 3]: 10.5
gamma-glutamylisoleucine* Active/Control [1, 3]: 8.1
gamma-glutamylleucine Active/Control [1, 3]: 1.6
gamma-glutamylmethionine Active/Control [1, 3]: 19.3
gamma-glutamylphenylalanine Active/Control [1, 3]: 4.2
gamma-glutamylthreonine Active/Control [1, 3]: 7.15
gamma-glutamyltyrosine Active/Control [1, 3]: 2.8
gamma-glutamylvaline Active/Control [1, 3]: 3.3
Gamma-glutamyl Threonine Int/con ([1]; intervention/control): 5.35
N-acetyl Threonine Int/con ([1]; intervention/control): 3.07
Threonine Int/con ([1]; intervention/control): 3.21
Gamma-glutamyl Threonine Int/Con with outlier removed [1, 4]: 7.15
N-acetyl Threonine Int/Con with outlier removed [1, 4]: 3.67
Threonine Int/Con with outlier removed [1, 4]: 4.35
Fecal retinol ([1]; versus control): significantly reduced
Vaccine response ([2]; infants persistently colonized for at least the first 100 days of life vs infants without colonization): stronger vaccine response
Vaccine specific antibodies in stool ([2]; stool collected at 10 and 12 months, treatment group): significant elevation
Bifidobacterium in fecal samples by microscopy (fecal bacteria; samples from the treatment group): high levels
Gram staining of fecal smears (fecal bacteria; three fecal samples, Day 40): overwhelmingly contained Gram-positive bacteria
Bacterial morphology in fecal samples (fecal bacteria; three fecal samples, Day 40, multiple fields of view): uniform morphology of rod-shaped bacteria
Fecal TNF expression (TNF): significantly reduced
